According to US20090169472A1, “METHODS AND COMPOSITIONS FOR TREATING IMMUNE DISORDERS” (CANCER RESEARCH TECHNOLOGY LTD., priority 2005, published 2009):
Oligonucleotides are written 5' to 3', each unit as a sugar letter and its base; * is a phosphorothioate linkage, no mark a phosphodiester; rarer units and linkages stand in square brackets, end groups in braces. Plain capitals give the bases only. r = 2'-OH (RNA)

Test system: Flt3L-DC
Assay: Flt3L-DC activation assay (cytokines in supernatant by sandwich ELISA)
Type: cell-based, mouse
Details: for IFNα induction by Flt3L-DC compared with polyUs-21 (reference TLR7 ligand): comparison in words; for ability to stimulate TLR7: summary statement on oligonucleotides of Table 1; for levels of IFNα compared with polyUs-21: at higher concentrations; for fold less potent in inducing IFNα by Flt3L-DC than the 21-mer (polyUo-21): phosphodiester polyU RNA, shift in the dose response; for IFNα production: phosphodiester RNA of undefined length, previous experiments
[1] = oligonucleotide/PEI complexes, C57BL/6 Flt3L-DC, overnight culture, result in words

Protocol: Flt3L-DC were generated from bone marrow cell suspensions in RPMI 1640 medium containing 10% fetal calf serum, 2 mM glutamine, 100 units/ml penicillin, 100 μg/ml streptomycin, 50 μM 2-mercaptoethanol and 50 ng/ml murine Flt3L (R&D systems) and were used at day 10 or 11 of cultures.
For stimulation with oligonucleotides, 2×10^5 Flt3L-DC were seeded in triplicate in 96-well-plates. Oligonucleotides were added and cells were cultured overnight in a final volume of 200 μl. Controls contained medium alone, 0.5 μg/ml CpG 1668, 100 mM loxoribine or 1 μM R848.
For stimulation with oligonucleotides other than CpG 1668, different doses of each test oligonucleotides were diluted in 150 mM NaCl solution and mixed with an equal volume of 150 mM NaCl solution+/−polytheylenimine (PEI; 3 μl/ml PEI were used irrespective of the RNA dose). After 15 min incubation at room temperature, oligonucleotide/PEI complexes were added to cells. Supernatants were collected after 18-20 hr of culture and levels of IFNα, IL-6 and IL-12 p40 were determined by sandwich ELISA.

SSD8: phosphorothioate RNA 21-mer CCUUUCCUUUCUUUCCUUUCC, 4x triple U, SEQ ID NO 12 (rC*rC*rU*rU*rU*rC*rC*rU*rU*rU*rC*rU*rU*rU*rC*rC*rU*rU*rU*rC*rC)
IFNα induction compared among SSD8, SSD9 and SSD10 (four, three or two uridine triplets) (PEI complexes): Differences between oligonucleotides SSD8 and SSD9 were only marginal
potency in inducing IFNα, no uridine at the ends (SSD8, SSD14) compared with uridine at the ends (SSD13, SSD15) (PEI complexes): slightly more potent in inducing IFNα
shift of the dose response, no uridine at the ends (SSD8, SSD14) compared with uridine at the ends (SSD13, SSD15) (PEI complexes): nearly half a logarithmic scale
IFNα induction by Flt3L-DC compared with polyUs-21 (reference TLR7 ligand) (PEI complexes): lower levels of IFNα than the 21-mer oligonucleotide consisting entirely of uridine nucleotides
ability to stimulate TLR7: capable of stimulating TLR7

polydUo-21: polyU DNA 21-mer (dU), phosphodiester bonds, SEQ ID NO 8 (UUUUUUUUUUUUUUUUUUUUU; listed as RNA, chemistry not fully specified)
potency in inducing IFNα compared with polyUo-21 (at higher doses, PEI complexes): even more potent
potency in stimulating an IFNα response compared with polyUo-21 (at lower doses, PEI complexes): less potent
IFNα induction by Flt3L-DC [1]: produced IFNα
ability to stimulate TLR7: capable of stimulating TLR7

SSD28: phosphorothioate RNA 21-mer CCCCUUCUUCUUCUUCUUCCC, 5x double U, one C apart, SEQ ID NO 24 (rC*rC*rC*rC*rU*rU*rC*rU*rU*rC*rU*rU*rC*rU*rU*rC*rU*rU*rC*rC*rC)
levels of IFNα compared with polyUs-21 (PEI complexes): comparable to the polyUs-21 oligonucleotide
IFNα induction by Flt3L-DC [1]: very potent in inducing IFNα
ability to stimulate TLR7: capable of stimulating TLR7

SSD23: phosphorothioate RNA 21-mer CCCUUUCCCUUUCCCUUUCCC, 3x triple U, three C apart, SEQ ID NO 20 (rC*rC*rC*rU*rU*rU*rC*rC*rC*rU*rU*rU*rC*rC*rC*rU*rU*rU*rC*rC*rC)
ability to stimulate TLR7: capable of stimulating TLR7

polyUo-15: polyU RNA 15-mer, phosphodiester bonds, SEQ ID NO 3 (UUUUUUUUUUUUUUU; unmodified RNA)
fold less potent in inducing IFNα by Flt3L-DC than the 21-mer (polyUo-21) (PEI complexes): approximately 20 ×
ability to stimulate TLR7: capable of stimulating TLR7

SSD27: phosphorothioate RNA 21-mer CUCUCUCUCUCUCUCUCUCUC, 10x single U, one C apart, SEQ ID NO 23 (rC*rU*rC*rU*rC*rU*rC*rU*rC*rU*rC*rU*rC*rU*rC*rU*rC*rU*rC*rU*rC)
IFNα induction by Flt3L-DC [1]: comparably poor in inducing IFNα

C=CCn1c(=O)n([C@@H]2O[C@H](CO)[C@@H](O)[C@H]2O)c2nc(N)[nH]c(=O)c21 [loxoribine, reference compound]
IL-6 induction by Flt3L-DC (ligands at concentrations of maximum cytokine induction, compared with polyUs-21/PEI): better inducers of IL-6 than polyUs-21

SSD24: phosphorothioate RNA 21-mer CCUUUCCCCUUUCCCCUUUCC, 3x triple U, four C apart, SEQ ID NO 21 (rC*rC*rU*rU*rU*rC*rC*rC*rC*rU*rU*rU*rC*rC*rC*rC*rU*rU*rU*rC*rC)
ability to stimulate TLR7: capable of stimulating TLR7

polyTs-21: polyT RNA 21-mer, phosphorothioate bonds, SEQ ID NO 28 (TTTTTTTTTTTTTTTTTTTTT; RNA, all phosphorothioate, T or U not given here; further chemistry not fully specified)
IFNα induction by Flt3L-DC [1]: unable to induce measurable levels of IFNα at any of the tested concentrations

SSD14: phosphorothioate RNA 21-mer CCUUCCUUCCUUCCUUCCUUC, 5x double U, no U at the end, SEQ ID NO 16 (rC*rC*rU*rU*rC*rC*rU*rU*rC*rC*rU*rU*rC*rC*rU*rU*rC*rC*rU*rU*rC)
potency in inducing IFNα, no uridine at the ends (SSD8, SSD14) compared with uridine at the ends (SSD13, SSD15) (PEI complexes): slightly more potent in inducing IFNα
shift of the dose response, no uridine at the ends (SSD8, SSD14) compared with uridine at the ends (SSD13, SSD15) (PEI complexes): nearly half a logarithmic scale
ability to stimulate TLR7: capable of stimulating TLR7

polyUs-15: polyU RNA 15-mer, phosphorothioate bonds, SEQ ID NO 6 (rU*rU*rU*rU*rU*rU*rU*rU*rU*rU*rU*rU*rU*rU*rU)
IFNα induction by Flt3L-DC compared with polyUs-21 (reference TLR7 ligand) (PEI complexes): indistinguishable from the response obtained with the 21-mer
ability to stimulate TLR7: capable of stimulating TLR7

polyC [reference compound]
IFNα production: neither polyA nor polyC phosphodiester RNA of undefined length triggered IFNα production

SSD9: phosphorothioate RNA 21-mer CCCCCCCUUUCUUUCCUUUCC, 3x triple U, SEQ ID NO 13 (rC*rC*rC*rC*rC*rC*rC*rU*rU*rU*rC*rU*rU*rU*rC*rC*rU*rU*rU*rC*rC)
IFNα induction compared among SSD8, SSD9 and SSD10 (four, three or two uridine triplets) (PEI complexes): Differences between oligonucleotides SSD8 and SSD9 were only marginal
IFNα induction by Flt3L-DC compared with polyUs-21 (reference TLR7 ligand) (PEI complexes): lower levels of IFNα than the 21-mer oligonucleotide consisting entirely of uridine nucleotides
ability to stimulate TLR7: capable of stimulating TLR7

SSD10: phosphorothioate RNA 21-mer CCCCCCCUUUCUUUCCCCCCC, 2x triple U, SEQ ID NO 14 (rC*rC*rC*rC*rC*rC*rC*rU*rU*rU*rC*rU*rU*rU*rC*rC*rC*rC*rC*rC*rC)
IFNα induction compared among SSD8, SSD9 and SSD10 (four, three or two uridine triplets) (PEI complexes): slightly reduced
IFNα induction by Flt3L-DC compared with polyUs-21 (reference TLR7 ligand) (PEI complexes): lower levels of IFNα than the 21-mer oligonucleotide consisting entirely of uridine nucleotides
ability to stimulate TLR7: capable of stimulating TLR7

SSD25: phosphorothioate RNA 21-mer CUUUCCCCCUUUCCCCCUUUC, 3x triple U, five C apart, SEQ ID NO 22 (rC*rU*rU*rU*rC*rC*rC*rC*rC*rU*rU*rU*rC*rC*rC*rC*rC*rU*rU*rU*rC)
IFNα induction by Flt3L-DC [1]: hardly any measurable levels of IFNα were induced

SSD15: phosphorothioate RNA 21-mer UUCCCUUCCCUUCCUUCCCUU, 5x double U with U at the end, SEQ ID NO 17 (rU*rU*rC*rC*rC*rU*rU*rC*rC*rC*rU*rU*rC*rC*rU*rU*rC*rC*rC*rU*rU)
ability to stimulate TLR7: capable of stimulating TLR7

SSD29: phosphorothioate RNA 21-mer CCCCCCUUUUUUUUUUCCCCC, 10x U in a string, SEQ ID NO 25 (rC*rC*rC*rC*rC*rC*rU*rU*rU*rU*rU*rU*rU*rU*rU*rU*rC*rC*rC*rC*rC)
levels of IFNα compared with polyUs-21 (PEI complexes): comparable to the polyUs-21 oligonucleotide
IFNα induction by Flt3L-DC [1]: very potent in inducing IFNα
ability to stimulate TLR7: capable of stimulating TLR7

polyUo-21: polyU RNA 21-mer, phosphodiester bonds, SEQ ID NO 2 (UUUUUUUUUUUUUUUUUUUUU; unmodified RNA)
IFNα induction by Flt3L-DC compared with polyUs-21 (reference TLR7 ligand) (PEI complexes): induced similar IFNα
IFNα induction by Flt3L-DC (free oligonucleotide given to culture without PEI): failed to induce IFNα
IFNα induction by Flt3L-DC [1]: induced IFNα by Flt3L-DC in a dose dependent manner
ability to stimulate TLR7: capable of stimulating TLR7

polydUs-21: polyU DNA 21-mer (dU), phosphorothioate bonds, SEQ ID NO 9 (UUUUUUUUUUUUUUUUUUUUU; DNA, all phosphorothioate, T or U not given here)
ability to stimulate TLR7: capable of stimulating TLR7

polyA [reference compound]
IFNα production: neither polyA nor polyC phosphodiester RNA of undefined length triggered IFNα production

SSD13: phosphorothioate RNA 21-mer UUUCCCUUUCCCUUUCCCUUU, 4x triple U, SEQ ID NO 15 (rU*rU*rU*rC*rC*rC*rU*rU*rU*rC*rC*rC*rU*rU*rU*rC*rC*rC*rU*rU*rU)
ability to stimulate TLR7: capable of stimulating TLR7

polyUo-10: polyU RNA 10-mer, phosphodiester bonds, SEQ ID NO 4 (UUUUUUUUUU; unmodified RNA)
fold less potent in inducing IFNα by Flt3L-DC than the 21-mer (polyUo-21) (PEI complexes): approximately 20 ×
ability to stimulate TLR7: capable of stimulating TLR7

SSD21: phosphorothioate RNA 21-mer CCCCCUUUCUUUCUUUCCCCC, 3x triple U, one C apart, SEQ ID NO 18 (rC*rC*rC*rC*rC*rU*rU*rU*rC*rU*rU*rU*rC*rU*rU*rU*rC*rC*rC*rC*rC)
IFNα levels compared within the group SSD21-SSD25 (three uridine triplets, one to five cytosines apart) (PEI complexes): induced the highest levels of IFNα in this group of oligonucleotides
IFNα induction by Flt3L-DC compared with polyUs-21 (reference TLR7 ligand) (PEI complexes): less efficient in IFNα induction than polyUs-21
ability to stimulate TLR7: capable of stimulating TLR7

SSD22: phosphorothioate RNA 21-mer CCCCUUUCCUUUCCUUUCCCC, 3x triple U, two C apart, SEQ ID NO 19 (rC*rC*rC*rC*rU*rU*rU*rC*rC*rU*rU*rU*rC*rC*rU*rU*rU*rC*rC*rC*rC)
ability to stimulate TLR7: capable of stimulating TLR7
